Consider nine molecules from the NIST ThermoML archive (doi:10.1016/j.jct.2012.03.034).

The conditions of data set [1]: 298.15 K, 101.33 kPa, Liquid; for speed of sound: Linear variable-path acoustic interferometer; for mass density: Vibrating tube method; for viscosity: dual vibrating plate viscometer, AandD Co. Ltd Model SV-10.
The nature of data set [2]: xn = mol fraction of the nth substance listed. The note with it: 101 kPa, Liquid, x2 = 0; for speed of sound: Linear variable-path acoustic interferometer; for mass density: Vibrating tube method; for viscosity: dual vibrating plate viscometer, AandD Co. Ltd Model SV-10.

± gives the expanded uncertainty stated by the source.

As usually defined, the speed of sound is the propagation velocity of pressure waves in the medium. In general, mass density refers to the mass of a sample divided by its volume. What is called viscosity is the resistance of a fluid to flow. For `CC[NH2+]CC.O=S(=O)([O-])O` [diethylammonium hydrogen sulfate], in data set [1], the speed of sound is on record as 1432 ± 2 m/s, the mass density is reported as 1283.95 ± 0.61 kg/m3 and the viscosity came out at 34.1 ± 0.63 mPa·s.
As to `CN1CCCC1=O` [N-methylpyrrolidone] + CC(=O)[O-].CC[NH2+]CC, the speed of sound in data set [2] (298.15 K) is given as 1572 ± 2 m/s; in data set [2] (303.15 K), 1552 ± 2 m/s; in data set [2] (308.15 K), 1528 ± 2 m/s; in data set [2] (313.15 K), 1520 ± 2 m/s. In addition, the mass density in data set [2] (298.15 K) is reported as 1025.9 ± 0.3 kg/m3; in data set [2] (303.15 K), 1023.74 ± 0.3 kg/m3; in data set [2] (308.15 K), 1019.25 ± 0.3 kg/m3; in data set [2] (313.15 K), 1014.74 ± 0.3 kg/m3. In addition, the viscosity came to 1.66 ± 0.03 mPa·s in data set [2] (298.15 K), 1.49 ± 0.03 mPa·s in data set [2] (303.15 K), 1.39 ± 0.03 mPa·s in data set [2] (308.15 K) and 1.31 ± 0.03 mPa·s in data set [2] (313.15 K).
For `CN1CCCC1=O` [N-methylpyrrolidone] + CC[NH2+]CC.O=S(=O)([O-])O, the speed of sound in data set [2] (298.15 K) was 1572 ± 2 m/s; in data set [2] (303.15 K) it was 1552 ± 2 m/s; in data set [2] (308.15 K), 1528 ± 2 m/s; in data set [2] (313.15 K), 1520 ± 2 m/s. In addition, the mass density is listed as 1025.9 ± 0.3 kg/m3 in data set [2] (298.15 K), 1023.74 ± 0.3 kg/m3 in data set [2] (303.15 K), 1019.25 ± 0.3 kg/m3 in data set [2] (308.15 K) and 1014.74 ± 0.3 kg/m3 in data set [2] (313.15 K). Moreover, the viscosity was determined as 1.66 ± 0.03 mPa·s in data set [2] (298.15 K), 1.49 ± 0.03 mPa·s in data set [2] (303.15 K), 1.39 ± 0.03 mPa·s in data set [2] (308.15 K) and 1.31 ± 0.03 mPa·s in data set [2] (313.15 K).
Take `CN1CCCC1=O` [N-methylpyrrolidone] + CC[NH+](CC)CC.O=S(=O)([O-])O: the speed of sound in data set [2] (298.15 K) is given as 1572 ± 2 m/s; in data set [2] (303.15 K), 1552 ± 2 m/s; in data set [2] (308.15 K), 1528 ± 2 m/s; in data set [2] (313.15 K), 1520 ± 2 m/s. Besides, the mass density in data set [2] (298.15 K) is given as 1025.9 ± 0.3 kg/m3; in data set [2] (303.15 K), 1023.74 ± 0.3 kg/m3; in data set [2] (308.15 K) it was 1019.25 ± 0.3 kg/m3; in data set [2] (313.15 K), 1014.74 ± 0.3 kg/m3. Further, the viscosity in data set [2] (308.15 K) is on record as 1.39 ± 0.03 mPa·s; in data set [2] (313.15 K), 1.31 ± 0.03 mPa·s.
As to `CC(=O)[O-].CC[NH2+]CC` [diethylammonium acetate], in data set [1], the speed of sound is 1608 ± 2 m/s, the mass density was determined as 1021.41 ± 0.32 kg/m3 and the viscosity is reported as 16.36 ± 0.23 mPa·s.
The like results for `CC(=O)O.CCN(CC)CC` [triethylammonium acetate] were, in that order, 1840 ± 2 m/s, 1015.86 ± 0.32 kg/m3 and 24.14 ± 0.39 mPa·s.
For `CC[NH+](CC)CC.O=S(=O)([O-])O` [triethylammonium hydrogen sulfate], in that order: 1874 ± 2 m/s, 1142.89 ± 0.45 kg/m3 and 235 ± 13 mPa·s.
The like results for `CN1CCCC1=O` [N-methylpyrrolidone] were, in that order, 1552 ± 2 m/s, 1025.9 ± 0.31 kg/m3 and 1.66 ± 0.03 mPa·s.
`CN1CCCC1=O` [N-methylpyrrolidone] + CC(=O)O.CCN(CC)CC: the speed of sound in data set [2] (298.15 K) is reported as 1572 ± 2 m/s; in data set [2] (303.15 K), 1552 ± 2 m/s; in data set [2] (308.15 K), 1528 ± 2 m/s; in data set [2] (313.15 K), 1520 ± 2 m/s. The mass density in data set [2] (298.15 K) is recorded as 1025.9 ± 0.3 kg/m3; in data set [2] (303.15 K), 1023.74 ± 0.3 kg/m3; in data set [2] (308.15 K), 1019.25 ± 0.3 kg/m3; in data set [2] (313.15 K), 1014.74 ± 0.3 kg/m3. In addition, the viscosity came out at 1.66 ± 0.03 mPa·s in data set [2] (298.15 K), 1.49 ± 0.03 mPa·s in data set [2] (303.15 K), 1.39 ± 0.03 mPa·s in data set [2] (308.15 K) and 1.31 ± 0.03 mPa·s in data set [2] (313.15 K).
